Data published in a polymer gas permeability compilation.

Question: Which CH4 permeability does the source give for `*Oc1ccc(-c2ccc(C3CCC(Oc4ccc(C5(c6ccc(*)cc6)c6ccccc6-c6ccccc65)cc4)C(C(F)(F)F)C3)s2)cc1C(F)(F)F` (repeat unit) here?
Answer: The CH4 permeability was 1.8 Barrer.

Question: And the CO2 permeability?
Answer: The CO2 permeability was 35.7 Barrer.

Question: And the H2 permeability?
Answer: The H2 permeability was 55 Barrer.

Question: What about the N2 permeability of the same compound?
Answer: Its N2 permeability is 1.99 Barrer.

Question: And the O2 permeability?
Answer: Its O2 permeability is 8.4 Barrer.

Question: For `*c1ccc(Oc2ccc(C3(c4ccc(Oc5ccc(N6C(=O)c7ccc(C(c8ccc9c(c8)C(=O)N(*)C9=O)(C(F)(F)F)C(F)(F)F)cc7C6=O)c(C)c5)cc4)OC(=O)c4ccccc43)cc2)cc1C` (repeat unit), which CH4 permeability is on record?
Answer: The CH4 permeability was 0.56 Barrer.

Question: And the CO2 permeability?
Answer: Its CO2 permeability is 21.4 Barrer.

Question: And the N2 permeability?
Answer: Its N2 permeability is 1.1 Barrer.

Question: What about the O2 permeability of the same compound?
Answer: The O2 permeability was 5.71 Barrer.

Question: With `*C(=C(*)c1ccc2c(c1)C(C)(C)c1cc([Si](C)(C)C)ccc1-2)c1ccccc1` (repeat unit) as the compound, how does the CH4 permeability read?
Answer: The CH4 permeability was 10000 Barrer.

Question: And the CO2 permeability?
Answer: Its CO2 permeability is 18000 Barrer.

Question: What about the H2 permeability of the same compound?
Answer: The H2 permeability was 8500 Barrer.

Question: And the N2 permeability?
Answer: Its N2 permeability is 3400 Barrer.

Question: And the O2 permeability?
Answer: The O2 permeability was 5400 Barrer.

Question: For `*C(=C(*)c1ccc2c(c1)C(C)(C)CC2(C)C)c1ccc(C)cc1` (repeat unit), which CH4 permeability is on record?
Answer: Its CH4 permeability is 10100 Barrer.

Question: What about the CO2 permeability of the same compound?
Answer: The CO2 permeability was 16900 Barrer.

Question: And the H2 permeability?
Answer: The H2 permeability was 10800 Barrer.

Question: What about the N2 permeability of the same compound?
Answer: The N2 permeability was 4100 Barrer.

Question: And the O2 permeability?
Answer: Its O2 permeability is 5700 Barrer.

Question: What does the source list for `*Oc1ccc(C(C)(C)c2ccc(Oc3ccc4c(c3)C(=O)N(c3ccc(N5C(=O)c6ccc(*)cc6C5=O)cc3)C4=O)cc2)cc1` (repeat unit)?
Answer: CH4 permeability: 0.04 Barrer; CO2 permeability: 1.8 Barrer; O2 permeability: 0.4 Barrer

Question: What does the source list for `*C(=C(*)c1ccc([Si](C)(C)C)cc1)c1ccc(-c2ccc(C(C)(C)C)cc2)cc1` (repeat unit)?
Answer: CH4 permeability: 730 Barrer; CO2 permeability: 3300 Barrer; H2 permeability: 1200 Barrer; N2 permeability: 250 Barrer; O2 permeability: 620 Barrer

Question: For `*Oc1ccc(Oc2cccc(*)c2C#N)c(-c2cccc(C)c2)c1` (repeat unit), which CH4 permeability is on record?
Answer: Its CH4 permeability is 0.05 Barrer.

Question: And the CO2 permeability?
Answer: The CO2 permeability was 1.9 Barrer.

Question: And the H2 permeability?
Answer: Its H2 permeability is 6.8 Barrer.

Question: What about the N2 permeability of the same compound?
Answer: Its N2 permeability is 0.07 Barrer.

Question: What about the O2 permeability of the same compound?
Answer: The O2 permeability was 0.45 Barrer.

Question: What does the source list for `*CC(*)OCc1ccccc1` (repeat unit)?
Answer: CO2 permeability: 11.1 Barrer; N2 permeability: 0.79 Barrer; O2 permeability: 2.33 Barrer

Question: With `*c1ccc(Sc2ccc(Sc3ccc(Sc4ccc(Sc5ccc(N6C(=O)c7ccc(C(c8ccc9c(c8)C(=O)N(*)C9=O)(C(F)(F)F)C(F)(F)F)cc7C6=O)cc5)cc4)cc3)cc2)cc1` (repeat unit) as the compound, how does the CH4 permeability read?
Answer: Its CH4 permeability is 0.26 Barrer.

Question: What about the CO2 permeability of the same compound?
Answer: Its CO2 permeability is 6.62 Barrer.

Question: And the N2 permeability?
Answer: The N2 permeability was 0.29 Barrer.

Question: And the O2 permeability?
Answer: The O2 permeability was 1.46 Barrer.

Question: Which results are given for `*C(=C(*)c1ccc2c(c1)Cc1ccccc1-2)c1ccc([Si](C)(C)C)cc1` (repeat unit)?
Answer: CH4 permeability: 2000 Barrer; CO2 permeability: 6450 Barrer; H2 permeability: 3100 Barrer; N2 permeability: 950 Barrer; O2 permeability: 1650 Barrer
